Columns and labels:
[1] = test system: primary human fetal brain cells (HFB); assay: CTG viability of primary human fetal brain cultures with or without Aβ1-42; assay type: cell-based; details: for viability of Aβ1-42 exposed HFB cells: Aβ1-42 10 μM
Experimental: Functional assays in human primary mixed brain cultures (HFB). Primary cultures of mixed HFB were prepared from the brain parenchyma of aborted fetuses (80-100 days gestational age). The tissues were obtained from the Birth Defects Research Laboratory (BDRL) at the University of Washington, Seattle with approval from the Indiana University Institutional Review Board (IRB). The IRB determined that the use of anonymous human biological materials received from this depository is not considered as human subjects research (supplementary document, s1). The NIH funded BDRL tissue distribution program operates separately in full compliance with all relevant state and federal laws and regulations with donors providing written informed consent.
Fetal brain materials (10-20 g) were shipped overnight in chilled Hibernate-E medium (Invitrogen) supplemented with B27 (Invitrogen), GlutaMAX (Invitrogen) and antibiotic-antimycotic solution (Cellgro). HFB were prepared and cultured as described. Briefly, cells were cultured in Neurobasal medium (Invitrogen) without phenol red supplemented with 1×B27, […] GlutaMAX, 1×antibiotic cocktail, 5 ng/mL recombinant fibroblast growth factor 2 (bFGF) (Invitrogen), and 2 μL/mL Normocin (InVivoGen, San Diego, Calif., USA). Cells were counted and seeded onto poly-D-lysine (Sigma-Aldrich) coated 24-well plates (Corning, Lowell, Mass., USA) at 1.5×10^5 cells per well and maintained at 37° C. in a 5% CO2 incubator. Half media changes were performed every 4th day of culture and morphology was monitored via phase contrast microscopy. Culture medium was removed from cells on day 17 (DIV17) and replaced with Neurobasal medium with B27. […] Cells and conditioned media were harvested and stored for further analysis. Relative ATP concentration was measured using the CTG kit (Promega). Data is presented as ΔRLU=RLU of Aβ1-42 exposed cells-RLU unexposed cells. Conditioned media collected were assessed for specific cytokines using the OptEIA kits (BD Biosciences). Nuclear and cytoplasmic fractions were extracted using the CelLytic™ NuCLEAR™ Extraction Kit (Sigma) following manufacturer's protocol. Five microgram of nuclear extracts was incubated in a 96-well plate coated with oligonucleotides containing the NF-κβ consensus nucleotide sequence (5′-[…]-3′) (SEQ ID NO: 30). The activated NF-κβ bound to DNA was detected by anti-p65 antibody followed by a peroxidase coupled secondary antibody and substrate using the TransAM kit protocol (Active Motif). Nuclear extracts of Raji cells was used as the positive control.
Select PGA protects against Aβ1-42 induced toxicity, prevents p65 activation and cytokine response in human fetal brain (HFB) cells. […] Viability in terms of relative luminescent Units (RLU) was quantified using a Glowmax luminometer (Promega, Wis.). Data are presented as ARLU=RLU of Aβ1-42 exposed cells-RLU of unexposed cells. […] The mean RLU of vehicle treated HFB varied between 7352.75+/−1265.2 and 16157.5+/−4950. Average RLU of cultures exposed to Aβ1-42 varied between 6067.25+/−903.05 and 11574.25+/−4139.3 in different experiments. […] The culture supernatants were assessed for cytokines by ELISA (R&D Systems, Minn.). […] Primary HFB cultured similarly and harvested at the end of 4 hours was assessed for nuclear p65 using TransAM kit for NF-κB p65 (Active Motif, Calif.).

[2] = LD50 predicted from in-vitro IC50 by regression (Speilmann method); details: for LD50 estimated from IC50: Log (LD50)=0.506×(log IC50)+0.475, body weight; for LD50 (mM): score 1/0
Experimental: Lactate dehydrogenase (LDH) assay: To detect direct GA-induced cell lysis we performed LDH release assays (Roche Molecular Diagnostics). […] Approximately 5×10^4 U373 cells/well were cultured in 96-well plates in the presence of increasing concentrations of individual GA or control peptide from 0.5 μM to 500 μM. Cells treated with 2% triton-X 100 (Sigma Aldrich, St. Louis, Mo.) for 10 minutes served as positive control. Untreated cells served as controls for spontaneous LDH-release. Specific LDH-release was calculated according to the following formula: LDH-release %=100*(GA or control peptide treated cells—untreated cells)/(positive control-untreated cells). The IC50 values were extrapolated by logarithmic estimation. The LD50 in mg/kg was predicted using the formula, Log (LD50)=0.506×(log IC50)+0.475. […]

[3] = target: T1, Recombinant human p65 protein (r-p65) (Homo sapiens, UniProt Q04206); assay: Plate binding ELISA of GA/PGA with r-p65 (KD by method of Friguet)
T1 construct: purchased Ori-Gene Technologies Inc., Rockville, Md; TP320780
Experimental: We used similar method to determine direct binding kinetics of GA hexapeptides with human r-p65. […] Absorbance at 650 nm was measured with a mixing time of 30 s using BIORAD microplate reader. […] The dissociation constant of the interaction between the GA or the control peptide and r-p65 was determined by the method of Friguet et al., as described. A fraction of the bound r-p65 (x) and the ratio of bound r-p65 to the free GA or control peptide (y) was determined by the equations: x=(A0−A)/(A0), where A0 is the absorbance of r-p65anti-p65 complex in the absence of bound GA or control peptide and y=(A0−A)/(a0−i0)×(A0−A)/(A0), where a0 is the total concentration of GA or control peptide and i0 is the total concentration of r-p65.
Kinetics of PGA:-p65 interaction: The binding kinetics of top five PGA with full length human r-p65 was assessed as described. Plate bound GILZ-P or PGA at increasing concentrations was probed with r-p65-DDK (Ori-Gene Technologies Inc., Rockville, Md.) at constant concentration and detected with anti-DDK.

[4] = PGA at IC50 concentration, 24 hours
[5] = dissociation constant, KD, method of Friguet et al.
[6] = 50 μM peptide, vs untreated Aβ1-42 exposed cultures

T1 sequence (Q04206 whole entry): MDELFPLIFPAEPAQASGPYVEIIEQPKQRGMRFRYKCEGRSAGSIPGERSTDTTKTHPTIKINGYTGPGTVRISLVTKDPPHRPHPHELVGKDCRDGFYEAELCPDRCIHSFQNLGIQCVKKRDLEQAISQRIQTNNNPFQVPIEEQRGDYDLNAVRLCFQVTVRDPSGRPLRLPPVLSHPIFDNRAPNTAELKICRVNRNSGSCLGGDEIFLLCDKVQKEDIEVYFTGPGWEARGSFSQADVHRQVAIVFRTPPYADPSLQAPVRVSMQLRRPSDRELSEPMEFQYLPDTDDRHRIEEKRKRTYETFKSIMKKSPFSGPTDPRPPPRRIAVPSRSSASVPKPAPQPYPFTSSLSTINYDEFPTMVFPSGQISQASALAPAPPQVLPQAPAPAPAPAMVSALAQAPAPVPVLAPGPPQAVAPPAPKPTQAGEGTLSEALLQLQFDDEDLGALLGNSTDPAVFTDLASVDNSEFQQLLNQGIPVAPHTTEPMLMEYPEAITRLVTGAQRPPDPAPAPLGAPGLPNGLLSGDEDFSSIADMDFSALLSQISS

Substance	tolerance of HFB cultures (ΔRLU, CTG) ([1]; PGA at IC50 concentration)	viability of Aβ1-42 exposed HFB cells [1, 4]	LD50 estimated from IC50 [2]	LD50 (mM) [2]	Kd ([3]; KD (uM), score 1/0)	Kd [3, 5]	viability of Aβ1-42 exposed HFB cells [1, 6]	affinity for binding r-p65 relative to r-GILZ [3]
Ac-EPAPLAPYG-NH2 [PGA-2]	well tolerated	significantly higher	1396.83 mg/kg	1 (>100)	< 3 µM	2.29 µM	–	–
Ac-EPAPESPQV-NH2 [PGA-4]	well tolerated	significantly higher	1693.87 mg/kg	1 (>100)	> 3 µM	3.28 µM	–	–
Ac-EPAPESPQV-NH2 [GA-2]	–	–	369.42 mg/kg	–	–	–	significantly higher	greater affinity for binding r-p65 than the full length r-GILZ
Ac-EPAPLAPYG-NH2 [GA-1]	–	–	380.44 mg/kg	–	–	–	significantly higher	greater affinity for binding r-p65 than the full length r-GILZ

— patent US11478526B2, “Methods of reducing neuroinflammation or toxicity induced by amyloid beta (abeta) using glucocorticoid induced leucine zipper (GILZ) analog peptides” (INDIANA UNIVERSITY RESEARCH AND TECHNOLOGY CORPORATION, priority 2016, dated 2022)
